Test results taken from patent publication US20060154889A1, “Polyfluorinated nucleoside analogs and methods of use thereof” (priority 2004, published 2006).
Like-named read-outs stand apart in the source and are kept apart here.

Assays:
5′XCGCGCG3′ = assay: Dangling end stacking in 6-bp self-complementary DNA (Table S3); type: physicochemical; conditions: for ΔG°37 (Van't Hoff) / ΔG°37 (avg.) / ΔG°37 (fits) / ΔH° (van't Hoff) / ΔS° (Van't Hoff) / Tm: 5′XCGCGCG3′ dangling base; for Tm: 1 M NaCl, 10 mM phosphate buffer (pH 7.0), 0.1 mM EDTA, 5.0 μM; for stacks more favorably than parent hydrocarbon: ^FB vs B, ^FI vs I
Method: To seek evidence for the origins of this selectivity, we examined individual properties of the four nonpolar nucleoside analogues. Stacking was evaluated by the standard dangling end approach using a 6-bp self-complementary DNA.
Calculations. […] (Table 4 and Table 5)

[1] = Octanol-water partitioning of free nucleosides
Method: We explicitly examined hydrophobicity of the four nucleosides by partitioning between 1-octanol and water.
Octanol-water partitioning. The experimental solvent partitioning studies for free nucleosides were carried out as described. Experiments were carried out in triplicate and the results averaged to increase accuracy.

XAGCGCT = assay: Dangling-end thermal denaturation, sequence XAGCGCT (Table 2); type: physicochemical
Method: (§1) The dangling-end experimental method was utilized to evaluate the ability of the fluorinated aromatic base analogues to stabilize DNA duplexes when substituted directly adjacent to the helix. The relative stabilizations were measured by comparison of the energetics for helix—coil melting transition of the “core “duplex (lacking any “dangling “nucleotide) to that containing the extra nucleotide. Five short self-complementary sequence contexts were used; the sequences were chosen because they had been shown previously to be well-behaved thermodynamically in the dangling-end configuration. Data from two of the contexts are shown in Table 1, and data for the remaining three show similar trends. By use of these five contexts we were able to compare stacking effects of the base analogues with all four neighboring DNA bases in the helix.
(§2) Methods for thermodynamic measurements. Thermal denaturation. […] Solutions were then heated to 90° C. for 5 minutes and annealed by slowly cooling to room temperature and then to 0° C.

XTGAGCTCA = assay: Dangling-end thermal denaturation, sequence XTGAGCTCA (Table 2); type: physicochemical
Method: as §1, §2

XGTAGCTAC = assay: Dangling-end thermal denaturation, sequence XGTAGCTAC (Table 2); type: physicochemical
Method: as §1, §2

XACAGCTGT = assay: Dangling-end thermal denaturation, sequence XACAGCTGT (Table 1); type: physicochemical; conditions: for Tm: 1 M NaCl, 10 mM sodium phosphate pH 7.0, 5.0 μM DNA-strand; for ΔΔG stacking: difference from core duplex; for ΔTm: vs core duplex
Method: (§3) The dangling-end experimental method was utilized to evaluate the ability of the fluorinated aromatic base analogues to stabilize DNA duplexes when substituted directly adjacent to the helix. The relative stabilizations were measured by comparison of the energetics for helix-coil melting transition of the “core “duplex (lacking any “dangling “nucleotide) to that containing the extra nucleotide. Five short self-complementary sequence contexts were used; the sequences were chosen because they had been shown previously to be well-behaved thermodynamically in the dangling-end configuration. Data from two of the contexts are shown in Table 1, and data for the remaining three show similar trends. By use of these five contexts we were able to compare stacking effects of the base analogues with all four neighboring DNA bases in the helix. Methods for thermodynamic measurements. Thermal denaturation. […] Solutions were then heated to 90° C. for 5 minutes and annealed by slowly cooling to room temperature and then to 0° C. […] Calculations.

(dCGCGCG)2 core duplex = assay: Dangling-end thermal denaturation, sequence XCGCGCG (Table 1); type: physicochemical; conditions: for ΔΔG stacking (stability contributed): (dCGCGCG)2 core duplex; for Tm / −ΔG37 / −ΔH / −ΔS / ΔΔG stacking / ΔTm: XCGCGCG; for Tm: 1 M NaCl, 10 mM sodium phosphate pH 7.0, 5.0 μM DNA-strand; for ΔΔG stacking: difference from core duplex; for ΔTm: vs core duplex
Method: as §3

[2] = average from fits to individual melting curves
[3] = 2,4,6- vs 2,4,5-substituted case

Row | Compound | −G37 (XTGAGCTCA; marker c) [kcal] | −H (XTGAGCTCA; marker c) [kcal] | −S (XTGAGCTCA; marker c) [eu] | −G37 (XTGAGCTCA; marker d) [kcal] | −H (XGTAGCTAC; marker c) [kcal] | −S (XGTAGCTAC; marker c) [eu] | Tm (XACAGCTGT) [°C] | −ΔG37 (XACAGCTGT; Van't Hoff plots) [kcal] | −ΔH (XACAGCTGT; Van't Hoff plots) [kcal] | −ΔS (XACAGCTGT; Van't Hoff plots) [eu] | −ΔG37 (XACAGCTGT; [2]) [kcal] | ΔΔG stacking (XACAGCTGT) | ΔTm (XACAGCTGT) [°C] | Tm ((dCGCGCG)2 core duplex) [°C] | −ΔG37 ((dCGCGCG)2 core duplex; Van't Hoff plots) [kcal] | −ΔH ((dCGCGCG)2 core duplex; Van't Hoff plots) [kcal] | −ΔS ((dCGCGCG)2 core duplex; Van't Hoff plots) [eu] | −ΔG37 ((dCGCGCG)2 core duplex; [2]) [kcal] | ΔΔG stacking ((dCGCGCG)2 core duplex) | ΔTm ((dCGCGCG)2 core duplex) [°C] | further results
1 | 1′,2′-dideoxy-β-1′-(N-indole)-D-ribofuranose [reference compound] | – | – | – | – | – | – | – | – | – | – | – | – | – | – | – | – | – | – | – | – | ΔG°37 (Van't Hoff) (5′XCGCGCG3′): -10.2 ± 0.3 kcal; ΔG°37 (avg.) (5′XCGCGCG3′): -10.0 ± 0.2 kcal; ΔG°37 (fits) (5′XCGCGCG3′): -9.9 ± 0.1 kcal; ΔH° (van't Hoff) (5′XCGCGCG3′): -60.2 kcal; ΔS° (Van't Hoff) (5′XCGCGCG3′): −161 eu; Tm (5′XCGCGCG3′): 51.6 °C; log P ([1]; free nucleoside, 1-octanol and water, triplicate): 0.99 (0.10)
2 | OC[C@H]1O[C@@H](c2cc(F)c(F)c(F)c2F)C[C@@H]1O [2,3,4,5-tetrafluorophenyl, 1′,2′-dideoxy-β-1′-(2,3,4,5-tetrafluorophenyl)-D-ribofuranose] | 9.1 | 51.9 | 138 | 9.2 | 57.0 | 156 | 50.9 | 10.7 ± 0.2 | 76.3 | 212 | 9.8 ± 0.2 | 2.3 ± 0.2 | 10.0 | 53.9 | 10.3 ± 0.2 | 53.8 | 93 | 10.2 ± 0.2 | 2.2 ± 0.2 | 12.6 | ΔG°37 (Van't Hoff) (5′XCGCGCG3′): -10.3 ± 0.2 kcal; ΔG°37 (avg.) (5′XCGCGCG3′): -10.2 ± 0.2 kcal; ΔG°37 (fits) (5′XCGCGCG3′): -10.2 ± 0.2 kcal; ΔH° (van't Hoff) (5′XCGCGCG3′): -53.8 kcal; ΔS° (Van't Hoff) (5′XCGCGCG3′): −93 eu; Tm (5′XCGCGCG3′): 53.9 °C; stacks more favorably than parent hydrocarbon (5′XCGCGCG3′): 1.0 kcal/mol; log P [1]: 1.39 (0.10); G stacking (XAGCGCT): 1.4; −G37 (XAGCGCT; marker c): 8.3 kcal; −H (XAGCGCT; marker c): 48.4 kcal; −S (XAGCGCT; marker c): 129 eu; −G37 (XAGCGCT; marker d): 8.3 kcal; G stacking (XTGAGCTCA): 1.5; G stacking (XGTAGCTAC): 1.7; −G37 (XGTAGCTAC; marker c): 8.8 kcal; −G37 (XGTAGCTAC; marker d): 8.8 kcal; ΔΔG stacking (stability contributed) ((dCGCGCG)2 core duplex): −2.2 kcalmol^−1
3 | OCC1OC(c2cc(F)c(F)cc2F)CC1O (stereo not drawn) [2,4,5-trifluorophenyl] | 9.2 | 53.8 | 144 | 9.1 | 72.5 | 204 | 48.9 | 10.1 ± 0.2 | 67.8 | 186 | 9.7 ± 0.1 | 1.9 ± 0.2 | 9.0 | 52.2 | 10.1 ± 0.3 | 55.0 | 145 | 10.0 ± 0.1 | 2.0 ± 0.2 | 10.8 | G stacking (XTGAGCTCA): 1.5; −G37 (XGTAGCTAC; marker d): 9.1 kcal
4 | OC[C@H]1O[C@@H](c2c(F)cc(F)cc2F)C[C@@H]1O [2,4,6-trifluorophenyl, 1′,2′-dideoxy-β-1′-(2,4,6-trifluorophenyl)-D-ribofuranose] | 8.8 | 46.7 | 122 | 9.0 | 52.5 | 142 | 47.8 | 9.3 ± 0.2 | 53.6 | 143 | 9.4 ± 0.2 | 1.3 ± 0.2 | 7.9 | 45.3 | 8.4 ± 0.2 | 37.3 | 104 | 8.6 ± 0.1 | 0.4 ± 0.1 | 4.0 | G stacking (XTGAGCTCA): 1.3; −G37 (XGTAGCTAC; marker c): 8.4 kcal; change in Tm stabilization on moving one fluorine from ortho to meta position ((dCGCGCG)2 core duplex; [3]): 6.8; change in stabilization free energy on moving one fluorine from ortho to meta position ((dCGCGCG)2 core duplex; [3]): 1.6 kcal
5 | OC[C@H]1OC(c2ccc(F)cc2)C[C@@H]1O (stereo partly drawn) [4-fluorophenyl, 1′-(4-fluorophenyl)-2′-deoxy-D-ribose] | – | – | – | – | – | – | 48.7 | 9.9 ± 0.1 | 66.6 | 183 | 9.6 ± 0.1 | 1.8 ± 0.1 | 8.7 | 51.2 | 10.3 ± 0.3 | 64.9 | 175 | 9.9 ± 0.2 | 2.0 ± 0.2 | 9.8 | –
6 | OC[C@H]1O[C@@H](n2ccc3c(F)c(F)c(F)c(F)c32)C[C@@H]1O [^FI, 1′,2′-dideoxy-β-1′-(N-4,5,6,7-tetrafluoroindole)-D-ribofuranose] | – | – | – | – | – | – | – | – | – | – | – | – | – | – | – | – | – | – | – | – | ΔG°37 (Van't Hoff) (5′XCGCGCG3′): -11.1 ± 0.2 kcal; ΔG°37 (avg.) (5′XCGCGCG3′): -11.2 ± 0.2 kcal; ΔG°37 (fits) (5′XCGCGCG3′): -11.3 ± 0.2 kcal; ΔH° (van't Hoff) (5′XCGCGCG3′): -52.6 kcal; ΔS° (Van't Hoff) (5′XCGCGCG3′): −134 eu; Tm (5′XCGCGCG3′): 59.3 °C; stacks more favorably than parent hydrocarbon (5′XCGCGCG3′): 1.1 kcal/mol; log P [1]: 1.66 (0.10)
7 | OC[C@H]1O[C@@H](c2c(F)c(F)c(F)c(F)c2F)C[C@@H]1O [pentafluorophenyl, 1′,2′-dideoxy-β-1′-(pentafluorophenyl)-D-ribofuranose] | 8.7 | 48.6 | 128 | 8.9 | 56.5 | 155 | 47.3 | 9.3 ± 0.0 | 55.2 | 148 | 9.3 ± 0.2 | 1.3 ± 0.1 | 7.0 | 44.2 | 8.5 ± 0.2 | 39.1 | 99 | 8.7 ± 0.1 | 0.5 ± 0.2 | 2.9 | G stacking (XAGCGCT): 0.9; −G37 (XAGCGCT; marker c): 7.9 kcal; −H (XAGCGCT; marker c): 45.0 kcal; −S (XAGCGCT; marker c): 120 eu; ΔΔG stacking (stability contributed) ((dCGCGCG)2 core duplex): −0.5 kcalmol^−1
